Results published in patent publication US7652029B2, “Therapeutic compound and treatments” (priority 2004, dated 2010).

What was measured:
Assay in all cases: NCI multiple cell line test (SRB)
Format in all cases: cell-based, human
[1] = system: A549/ATCC; conditions: A549/ATCC (Non-Small Cell Lung Cancer), 48 h
[2] = system: EKVX; conditions: EKVX (Non-Small Cell Lung Cancer), 48 h
[3] = system: HOP-92; conditions: HOP-92 (Non-Small Cell Lung Cancer), 48 h
[4] = system: NCI-H522; conditions: NCI-H522 (Non-Small Cell Lung Cancer), 48 h
[5] = system: HCT-116; conditions: HCT-116 (Colon Cancer), 48 h
[6] = system: SF-268
[7] = system: SF-295; conditions: SF-295 (CNS Cancer), 48 h
[8] = system: SK-MEL-2; conditions: SK-MEL-2 (Melanoma), 48 h
[9] = system: IGROV1; conditions: IGROV1 (Ovarian Cancer), 48 h
[10] = system: OVCAR-3; conditions: OVCAR-3 (Ovarian Cancer), 48 h
[11] = system: 786-0; conditions: 786-0 (Renal Cancer), 48 h
[12] = system: CAKI-1; conditions: CAKI-1 (Renal Cancer), 48 h
[13] = system: MCF7
[14] = system: MDA-MB-231/ATCC; conditions: MDA-MB-231/ATCC (Breast Cancer), 48 h
[15] = Homo sapiens, read-out: −log10GI50 (converted)

Q: What does the source list for COC(=O)C1=C(C(=O)OC)SC2(S1)C(C(=O)OC)=C(C(=O)OC)SC1=C2c2cccc(OC)c2N(C(=O)CN2C(=O)CCC2=O)C1(C)C [MT477]?
A: −log10LC50 [1]: * (effect not reached at maximum dose of 0.05 millimolar); −log10TGI [1]: 4.77 molar; IC50 [1, 15]: 3800 nM; −log10LC50 [2]: 4.34 molar; −log10TGI [2]: 4.7 molar; IC50 [2, 15]: 8510 nM; −log10LC50 [3]: 4.6 molar; −log10TGI [3]: 5.21 molar; IC50 [3, 15]: 1660 nM; IC50 [4, 15]: 9330 nM; −log10LC50 [4]: * (effect not reached at maximum dose of 0.05 millimolar); −log10TGI [4]: 4.31 molar; −log10LC50 [5]: 5.48 molar; −log10TGI [5]: 5.75 molar; IC50 [5, 15]: 955 nM; GI50 ([6]; Homo sapiens, SF-268, NCI-SF268, MT477 ACTUAL): 2510 nM; IC50 ([6]; Homo sapiens, SF-268 (CNS Cancer), 48 h, read-out: −log10GI50 (converted)): 2140 nM; Activity against CNS cancer NCI-SF268 ([6]; MT477 ACTUAL): Yes; −log10LC50 ([6]; SF-268 (CNS Cancer), 48 h): * (effect not reached at maximum dose of 0.05 millimolar); −log10TGI ([6]; SF-268 (CNS Cancer), 48 h): 4.97 molar; IC50 [7, 15]: 9550 nM; −log10LC50 [7]: * (effect not reached at maximum dose of 0.05 millimolar); −log10TGI [7]: 4.56 molar; IC50 [8, 15]: 4680 nM; −log10LC50 [8]: * (effect not reached at maximum dose of 0.05 millimolar); −log10TGI [8]: 4.41 molar; IC50 ([9]; Homo sapiens, IGROV-1, read-out: −log10GI50 (converted)): 17800 nM; −log10LC50 [9]: * (effect not reached at maximum dose of 0.05 millimolar); −log10TGI [9]: 4.3 molar; IC50 [10, 15]: 813 nM; −log10LC50 [10]: 5.39 molar; −log10TGI [10]: 5.74 molar; −log10LC50 [11]: 5.47 molar; −log10TGI [11]: 5.76 molar; IC50 [11, 15]: 871 nM; −log10LC50 [12]: 4.48 molar; −log10TGI [12]: 4.83 molar; IC50 [12, 15]: 6610 nM; IC50 ([13]; Homo sapiens, MCF7 (Breast Cancer), 48 h, read-out: −log10GI50 (converted)): 1780 nM; GI50 ([13]; Homo sapiens, NCI-MCF7, MT477 ACTUAL): 1580 nM; −log10LC50 ([13]; MCF7 (Breast Cancer), 48 h): * (effect not reached at maximum dose of 0.05 millimolar); −log10TGI ([13]; MCF7 (Breast Cancer), 48 h): * (effect not reached at maximum dose of 0.05 millimolar); Activity against breast cancer NCI-MCF7 ([13]; MT477 ACTUAL): Yes; IC50 [14, 15]: 851 nM; −log10LC50 [14]: 5.46 molar; −log10TGI [14]: 5.76 molar
